The assay relates to Aβ42 production. Nature of the assay: Quantification of Aβ peptide in culture of neurons from rat fetus brain (Aβ ELISA). The format is cell-based. Particulars: Neuron, 72 h; rat primary neuronal culture (embryonic day 18 Wistar rat cerebral cortex); cultured three days after addition of compound; Aβ42 concentration in the medium by ELISA; read-out: Aβ42 production reducing effect IC50. As to the method: Quantification of Aβ Peptide in Culture of Neurons from Rat Fetus Brain
(1) Rat Primary Neuronal Culture
Primary neuronal cultures were prepared from the cerebral cortex of embryonic day 18 Wistar rats (Charles River Japan, Yokohama, Japan). Specifically, the embryos were aseptically removed from pregnant rats under ether anesthesia. The brain was isolated from the embryo and immersed in an ice-cold L-15 medium (such as Invitrogen Corp. Cat #11415-064, Carlsbad, Calif., USA, or SIGMA L1518). The cerebral cortex was collected from the isolated brain under a stereoscopic microscope. The cerebral cortex fragments collected were enzymatically treated in an enzyme solution containing 0.25% trypsin (Invitrogen Corp. Cat #15050-065, Carlsbad, Calif., USA) and 0.01% DNase (Sigma D5025, St. Louis, Mo., USA) at 37° C. for 30 minutes to disperse the cells. Here, the enzymatic reaction was stopped by adding inactivated horse serum to the solution. The enzymatically treated solution was centrifuged at 1,500 rpm for five minutes to remove the supernatant. 5 to 10 ml of a medium was added to the resulting cell mass. […]

Molecules are shown by their SMILES.

In the case of `NC1=N[C@@]2(c3cc(NC(=O)c4cnc(OCF)cn4)ccc3F)COC[C@@H](F)[C@H]2CS1` [Example 21, N-[3-((4aS,5S,8aS)-2-amino-5-fluoro-4,4a,5,6,8,8a-hexahydro-7-oxa-3-thia-1-azanaphthalen-8a-yl)-4-fluorophenyl]-5-fluoromethoxypyrazine-2-carboxamide], the concentration for half-maximal inhibition (IC50) was 10 nM.
